From patent publication US6346527B1, “Guanidine derivatives” (Fujisawa Pharmaceutical Co., Ltd., priority 1998, dated 2002)
Where a name gives a salt, the structure may show the parent alone.

Biological target: T1, Na^+/H^+ exchange in cells (Rattus norvegicus, UniProt P26431)
T1 construct: The cells were dissociated by gentle strokes, and the resulting suspension was filtrated through six layers of surgical gauze; from tissue; host or cells: thymus cells (thymocytes) of a male SD rat
Test: Inhibitory activity on Na^+/H^+ exchange in cells
Type: cell-based
Conditions: rat (male SD) thymus cells; initial increase in intracellular pH (BCECF fluorescence) after adding NaCl (final 100 mM), 37° C.
Method: [2] Inhibitory activity on Na^+/H^+ exchange in cells
Procedure was carried out according to a similar manner to the method described in Enzymology 173, 777 (1989).
Cell preparation: One male SD strain rat weighing 250-300 g was sacrificed with the blow on the head. Then, the thymus was removed into ice-cold NaCl medium (140 mM sodium chloride, 1 mM potassium chloride, 1 mM calcium chloride, 1 mM magnesium chloride, 10 mM glucose and 20 mM N-2-hydroxyethylpiperazine-N′-2-ethanesulfonic acid (HEPES)—pH 7.3), cut in small fragments, and transferred to glass homogenizer. […]
Assay: The pellet was washed with Na-free buffer (140 mM Trimethyl ammonium, 4 mM KCl, 1 mM CaCl2, 1 mM MgSO4, 1 mM NaH2PO4, 18 mM glucose, 20 mM HEPES (pH 7.4)), then incubated with 16 μM of acetoxymethyl ester of 2′, 7′-bis(2-carboxyethyl)-5,6-carboxyfluorescein (BCECF-AM, Calbiochem Co.) and 20 mM NH4Cl at 37° C. for 30 minutes. […] Intracellular pH was measured at 37° C. with a spectrofluorometer (FS100, Kowa company, Japan) using the ratio of the emission (530 nm) obtained at 490 nm excitation wavelengths. […] The BCECF fluorescence signals were calibrated by titration with 1 M 2-(N-morpholino)ethanesulfonic acid (MES) after permeabilization of the cells with 0.5% Triton.

T1 sequence (P26431 whole entry): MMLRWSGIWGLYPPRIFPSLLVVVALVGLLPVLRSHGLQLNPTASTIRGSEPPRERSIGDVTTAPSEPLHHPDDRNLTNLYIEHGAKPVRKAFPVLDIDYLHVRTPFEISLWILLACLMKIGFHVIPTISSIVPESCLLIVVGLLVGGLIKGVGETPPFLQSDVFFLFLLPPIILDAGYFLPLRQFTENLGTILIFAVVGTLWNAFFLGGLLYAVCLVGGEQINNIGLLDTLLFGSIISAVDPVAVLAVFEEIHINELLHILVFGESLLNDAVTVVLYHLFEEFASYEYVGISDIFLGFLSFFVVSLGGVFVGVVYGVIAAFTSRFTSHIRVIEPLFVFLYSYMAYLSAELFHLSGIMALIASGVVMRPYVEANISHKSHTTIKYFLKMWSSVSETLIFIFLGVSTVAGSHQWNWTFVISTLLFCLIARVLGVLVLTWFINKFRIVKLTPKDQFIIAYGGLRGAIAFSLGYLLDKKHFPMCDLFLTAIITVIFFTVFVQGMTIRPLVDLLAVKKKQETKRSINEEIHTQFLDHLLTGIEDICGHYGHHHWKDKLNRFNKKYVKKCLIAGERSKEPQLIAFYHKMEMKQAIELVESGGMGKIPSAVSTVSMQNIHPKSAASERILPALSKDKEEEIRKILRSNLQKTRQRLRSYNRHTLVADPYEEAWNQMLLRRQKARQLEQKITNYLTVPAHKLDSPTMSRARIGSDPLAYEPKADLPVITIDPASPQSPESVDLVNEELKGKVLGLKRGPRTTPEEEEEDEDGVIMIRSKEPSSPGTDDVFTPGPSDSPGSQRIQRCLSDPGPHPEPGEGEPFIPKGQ

In the case of `N=C(N)NC(=O)C1=Cc2cccc(/C=C/C(=O)O)c2OCC1` [(a), [9-[(E)-(2-Carboxyvinyl)]-2,3-dihydro-1-benzoxepin-4-carbonyl]guanidine hydrochloride], the IC50 is reported as less than 100 nM.
